Reference: US8192962B2, “Processes for detecting toxic substances” (Daikin Industries, Ltd., priority 2001, dated 2012)

Test system: Metabolism protein genes
Assay: DNA chip mRNA expression in yeast, metabolism protein genes (Table 7)
Assay type: cell-based, Saccharomyces cerevisiae S288C
In short: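 S. cerevisiae S288C grown at 25° C. in YPD to log phase, then exposed 2 h to a toxicant at a growth-inhibiting, non-lethal concentration; untreated cells as control. Poly(A) mRNA reverse-transcribed with Cy3-dUTP or Cy5-dUTP, hybridized >12 h at 65° C. to whole-genome yeast DNA chip; value = fluorescence ratio treated/untreated.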

CCCCC[C@H](O)CC(=O)CCc1ccc(O)c(OC)c1 [(13), gingerol]
The level of expressed mRNA in the presence of chemical substance/The level of expressed mRNA in the absence of chemical substance (yeast gene YAL012W): 1.1
The level of expressed mRNA in the presence of chemical substance/The level of expressed mRNA in the absence of chemical substance (yeast gene YAL038W): 1.8
The level of expressed mRNA in the presence of chemical substance/The level of expressed mRNA in the absence of chemical substance (yeast gene YAL044C): 1.1
The level of expressed mRNA in the presence of chemical substance/The level of expressed mRNA in the absence of chemical substance (yeast gene YAL054C): 1.8
The level of expressed mRNA in the presence of chemical substance/The level of expressed mRNA in the absence of chemical substance (yeast gene YAR071W): 0.3
The level of expressed mRNA in the presence of chemical substance/The level of expressed mRNA in the absence of chemical substance (yeast gene YBL001C): 1.0
level of expressed mRNA in the presence/in the absence of chemical substance (yeast gene YBR003W): 1.2
level of expressed mRNA in the presence/in the absence of chemical substance (yeast gene YBR011C): 1.5
The level of expressed mRNA in the presence of chemical substance/The level of expressed mRNA in the absence of chemical substance (yeast gene YBR014C): 0.9
level of expressed mRNA in the presence/in the absence of chemical substance (yeast gene YBR020W): 1.1
The level of expressed mRNA in the presence of chemical substance/The level of expressed mRNA in the absence of chemical substance (yeast gene YBR023C): 0.5
The level of expressed mRNA in the presence of chemical substance/The level of expressed mRNA in the absence of chemical substance (yeast gene YBR029C): 1.7
The level of expressed mRNA in the presence of chemical substance/The level of expressed mRNA in the absence of chemical substance (yeast gene YBR035C): 1.8
The level of expressed mRNA in the presence of chemical substance/The level of expressed mRNA in the absence of chemical substance (yeast gene YBR068C): 2.2
The level of expressed mRNA in the presence of chemical substance/The level of expressed mRNA in the absence of chemical substance (yeast gene YBR111C): 1.6
The level of expressed mRNA in the presence of chemical substance/The level of expressed mRNA in the absence of chemical substance (yeast gene YBR183W): 1.4
The level of expressed mRNA in the presence of chemical substance/The level of expressed mRNA in the absence of chemical substance (yeast gene YBR222C): 1.6
The level of expressed mRNA in the presence of chemical substance/The level of expressed mRNA in the absence of chemical substance (yeast gene YBR256C): 3.5
The level of expressed mRNA in the presence of chemical substance/The level of expressed mRNA in the absence of chemical substance (yeast gene YBR296C): 2.0
The level of expressed mRNA in the presence of chemical substance/The level of expressed mRNA in the absence of chemical substance (yeast gene YCL009C): 1.6
The level of expressed mRNA in the presence of chemical substance/The level of expressed mRNA in the absence of chemical substance (yeast gene YCL064C): 1.6
level of expressed mRNA in the presence/in the absence of chemical substance (yeast gene YCR010C): 1.0
level of expressed mRNA in the presence/in the absence of chemical substance (yeast gene YCR034W): 0.2
The level of expressed mRNA in the presence of chemical substance/The level of expressed mRNA in the absence of chemical substance (yeast gene YCR037C): 1.3
The level of expressed mRNA in the presence of chemical substance/The level of expressed mRNA in the absence of chemical substance (yeast gene YCR048W): 1.3
The level of expressed mRNA in the presence of chemical substance/The level of expressed mRNA in the absence of chemical substance (yeast gene YCR098C): 1.4
The level of expressed mRNA in the presence of chemical substance/The level of expressed mRNA in the absence of chemical substance (yeast gene YDL021W): 5.3
The level of expressed mRNA in the presence of chemical substance/The level of expressed mRNA in the absence of chemical substance (yeast gene YDL022W): 1.5
The level of expressed mRNA in the presence of chemical substance/The level of expressed mRNA in the absence of chemical substance (yeast gene YDR009W): 1.2
The level of expressed mRNA in the presence of chemical substance/The level of expressed mRNA in the absence of chemical substance (yeast gene YDR019C): 1.0
level of expressed mRNA in the presence/in the absence of chemical substance (yeast gene YDR050C): 2.0
level of expressed mRNA in the presence/in the absence of chemical substance (yeast gene YDR073W): 0.6
level of expressed mRNA in the presence/in the absence of chemical substance (yeast gene YDR123C): 0.9
level of expressed mRNA in the presence/in the absence of chemical substance (yeast gene YDR178W): 1.5
level of expressed mRNA in the presence/in the absence of chemical substance (yeast gene YDR277C): 1.2
level of expressed mRNA in the presence/in the absence of chemical substance (yeast gene YDR284C): 1.2
level of expressed mRNA in the presence/in the absence of chemical substance (yeast gene YDR345C): 1.2
level of expressed mRNA in the presence/in the absence of chemical substance (yeast gene YDR400W): 0.7
level of expressed mRNA in the presence/in the absence of chemical substance (yeast gene YDR408C): 0.5
The level of expressed mRNA in the presence of chemical substance/The level of expressed mRNA in the absence of chemical substance (yeast gene YDR410C): 1.2
level of expressed mRNA in the presence/in the absence of chemical substance (yeast gene YDR483W): 1.3
The level of expressed mRNA in the presence of chemical substance/The level of expressed mRNA in the absence of chemical substance (yeast gene YDR487C): 1.5
The level of expressed mRNA in the presence of chemical substance/The level of expressed mRNA in the absence of chemical substance (yeast gene YDR502C): 1.2
The level of expressed mRNA in the presence of chemical substance/The level of expressed mRNA in the absence of chemical substance (yeast gene YDR516C): 2.5
The level of expressed mRNA in the presence of chemical substance/The level of expressed mRNA in the absence of chemical substance (yeast gene YEL011W): 1.5
level of expressed mRNA in the presence/in the absence of chemical substance (yeast gene YEL063C): 1.1
level of expressed mRNA in the presence/in the absence of chemical substance (yeast gene YER015W): 0.8
The level of expressed mRNA in the presence of chemical substance/The level of expressed mRNA in the absence of chemical substance (yeast gene YER026C): 1.9
The level of expressed mRNA in the presence of chemical substance/The level of expressed mRNA in the absence of chemical substance (yeast gene YER053C): 4.1
The level of expressed mRNA in the presence of chemical substance/The level of expressed mRNA in the absence of chemical substance (yeast gene YER069W): 1.4
level of expressed mRNA in the presence/in the absence of chemical substance (yeast gene YER081W): 0.6
The level of expressed mRNA in the presence of chemical substance/The level of expressed mRNA in the absence of chemical substance (yeast gene YER096W): 2.3
level of expressed mRNA in the presence/in the absence of chemical substance (yeast gene YER120W): 1.0
The level of expressed mRNA in the presence of chemical substance/The level of expressed mRNA in the absence of chemical substance (yeast gene YER178W): 2.4
level of expressed mRNA in the presence/in the absence of chemical substance (yeast gene YFL011W): 0.8
The level of expressed mRNA in the presence of chemical substance/The level of expressed mRNA in the absence of chemical substance (yeast gene YFL030W): 2.2
The level of expressed mRNA in the presence of chemical substance/The level of expressed mRNA in the absence of chemical substance (yeast gene YFL031W): 2.6
The level of expressed mRNA in the presence of chemical substance/The level of expressed mRNA in the absence of chemical substance (yeast gene YFL056C): 4.7
The level of expressed mRNA in the presence of chemical substance/The level of expressed mRNA in the absence of chemical substance (yeast gene YFL057C): 4.1
level of expressed mRNA in the presence/in the absence of chemical substance (yeast gene YGL012W): 0.3
The level of expressed mRNA in the presence of chemical substance/The level of expressed mRNA in the absence of chemical substance (yeast gene YGL022W): 1.0
level of expressed mRNA in the presence/in the absence of chemical substance (yeast gene YGL115W): 0.7
The level of expressed mRNA in the presence of chemical substance/The level of expressed mRNA in the absence of chemical substance (yeast gene YGL184C): 7.4
level of expressed mRNA in the presence/in the absence of chemical substance (yeast gene YGL205W): 1.0
The level of expressed mRNA in the presence of chemical substance/The level of expressed mRNA in the absence of chemical substance (yeast gene YGL209W): 1.9
The level of expressed mRNA in the presence of chemical substance/The level of expressed mRNA in the absence of chemical substance (yeast gene YGL248W): 2.0
The level of expressed mRNA in the presence of chemical substance/The level of expressed mRNA in the absence of chemical substance (yeast gene YGR055W): 1.9
level of expressed mRNA in the presence/in the absence of chemical substance (yeast gene YGR096W): 1.1
level of expressed mRNA in the presence/in the absence of chemical substance (yeast gene YGR191W): 1.0
The level of expressed mRNA in the presence of chemical substance/The level of expressed mRNA in the absence of chemical substance (yeast gene YGR194C): 2.2
level of expressed mRNA in the presence/in the absence of chemical substance (yeast gene YGR204W): 1.3
The level of expressed mRNA in the presence of chemical substance/The level of expressed mRNA in the absence of chemical substance (yeast gene YGR282C): 1.2
level of expressed mRNA in the presence/in the absence of chemical substance (yeast gene YGR288W): 1.3
level of expressed mRNA in the presence/in the absence of chemical substance (yeast gene YHR025W): 0.7
The level of expressed mRNA in the presence of chemical substance/The level of expressed mRNA in the absence of chemical substance (yeast gene YHR111W): 2.2
level of expressed mRNA in the presence/in the absence of chemical substance (yeast gene YHR123W): 1.5
The level of expressed mRNA in the presence of chemical substance/The level of expressed mRNA in the absence of chemical substance (yeast gene YHR137W): 0.6
The level of expressed mRNA in the presence of chemical substance/The level of expressed mRNA in the absence of chemical substance (yeast gene YHR176W): 1.9
level of expressed mRNA in the presence/in the absence of chemical substance (yeast gene YHR210C): 0.4
level of expressed mRNA in the presence/in the absence of chemical substance (yeast gene YIL006W): 0.8
The level of expressed mRNA in the presence of chemical substance/The level of expressed mRNA in the absence of chemical substance (yeast gene YIL045W): 2.0
The level of expressed mRNA in the presence of chemical substance/The level of expressed mRNA in the absence of chemical substance (yeast gene YIL107C): 1.9
The level of expressed mRNA in the presence of chemical substance/The level of expressed mRNA in the absence of chemical substance (yeast gene YIL154C): 1.7
The level of expressed mRNA in the presence of chemical substance/The level of expressed mRNA in the absence of chemical substance (yeast gene YIL155C): 2.0
The level of expressed mRNA in the presence of chemical substance/The level of expressed mRNA in the absence of chemical substance (yeast gene YIL167W): 1.2
The level of expressed mRNA in the presence of chemical substance/The level of expressed mRNA in the absence of chemical substance (yeast gene YIR034C): 2.6
The level of expressed mRNA in the presence of chemical substance/The level of expressed mRNA in the absence of chemical substance (yeast gene YIR036C): 1.9
The level of expressed mRNA in the presence of chemical substance/The level of expressed mRNA in the absence of chemical substance (yeast gene YJL031C): 2.6
The level of expressed mRNA in the presence of chemical substance/The level of expressed mRNA in the absence of chemical substance (yeast gene YJL068C): 2.7
The level of expressed mRNA in the presence of chemical substance/The level of expressed mRNA in the absence of chemical substance (yeast gene YJL088W): 1.0
